The source of these data is US8594942B2, “Computational method and system for identifying network patterns in complex biological systems data” (Metabolon, Inc., priority 2004, dated 2013).

Series [1] concerns Male Fischer 344 rats. Description: Acetaminophen-induced liver toxicity study: biochemical profiling (LC-MS) of rat liver. It is filed as in vivo. Conditions: rat liver metabolite, single dose p.o. The method, then:
An acetaminophen-induced liver toxicity study was performed as follows. Male Fischer 344 rats were administered a single dose of acetaminophen (APAP) at 0, 50, 150, 1500 or 2000 mg/kg p.o. (6 rats per group). The 150 mg/kg dose is equivalent to a low overdose level in humans (˜10 g) and 1500 mg/kg is a low toxic dose in rats. The rats were sacrificed at 6, 18, 24, and 48 hr post dosing. Livers of the rats were processed for biochemical profiling, histopathology and gene expression analysis. For the 0, 50 and 1500 mg/kg dose groups, rat urine was collected at −24-0, 0-6, 6-24, and 24-48 hr relative to dosing. Similarly, rat serum was collected at 48 hr for the 0, 50 and 1500 mg/kg groups.
Rat tissue was prepared for LC-MS analysis as follows. Rat liver tissue samples were frozen upon collection. A slice of each frozen sample was placed into a mortar, covered with liquid nitrogen, and ground with a pestle. 100 mg of ground sample was placed in a cryovial, extraction fluid and beads were added, and the sample was further ground and then centrifuged. The supernatant was transferred to a clean cryovial, centrifuged again, and then transferred to a well of a 96-well plate.
LC-MS analysis of the rat tissue and biofluid samples was performed on an Applied Biosystems Mariner liquid chromatograph coupled with a time of flight mass spectrometer (LC-TOF). The mass resolution for the mass spectrometer employed in this experiment was 0.200 amu. One LC was employed with a splitter that allowed for the eluent to be delivered to two TOF MS instruments, one operating in positive ionization mode, the other in negative ionization mode. Compounds detected by LC-MS with an electrospray ion source were cataloged based on retention times and mass-to-charge ratio (m/z) of the ions characteristic of each peak. Mass spectrometric data were collected from 80-900 amu. Raw LC-MS data were processed using the commercially available software TARGETDB (Thru-Put Systems, Inc., Orlando, Fla.).
A targeted list of relative responses for peaks and peaks annotated as known compounds was produced from the LC/MS data for the rat liver samples described in Example 1 and is illustrated in FIG. 1. The resulting biochemical profiling data was subjected to Principal Component Analysis (PCA), showing trends over both dose and time (see FIG. 2). The third principal component (x-axis) is plotted against the second principal component (y-axis) for each of the 6, 18, 24 and 48 hr time points for acetaminophen doses 150 mg/kg (yellow), 1500 mg/kg (black), and 2000 mg/kg (green). Each data point represents the average for six animals.
Mathematical models of the trends observed in the PCA plot were developed. […] Trend 1 is a trend of increasing distance from control as the dose increases at any given time point. Trend 2 is a trend of change from one time point to the next that is in the same direction and of increasing magnitude as dose increases. Each of the relative response peaks in the liver biochemical profiling dataset was tested for adherence to the mathematical models to locate the subset of peaks that followed the observed trends. The peaks that adhered to the models were identified as the subset of most interest for further analysis of acetaminophen-induced liver changes. To further investigate the mode of action of acetaminophen, the known compounds in the identified subset were further analyzed using the methods and systems of the present invention.
Using the methods and systems of the present invention, another graph was generated depicting the 15 components of interest, from Example 3 above, that were closely related enough to fit on a single graph. […] It should be noted that not only is the perturbation of the 15 compounds of interest depicted in FIG. 5, but the experimental result from any compound measured and depicted in the network of FIG. 5 is shown. […]

In series [2] the test system is rats. Conditions: cited from earlier work.

Entries after “also recorded” stand apart in the source; their conditions may differ.

As for `CC(=O)Nc1ccc(O)cc1` [acetaminophen], the “Status of L-asparagine” value in series [1] (FIG. 5 network component 2) is on record as “Down Regulated”. For the same compound, the “Status of ‘N’-acetyl-“b”-D-glucosamine” value in series [1] (FIG. 5 network component 7) is “Down Regulated”. For the same compound, the “Status of “a”-ketoglutarate” value in series [1] (FIG. 5 network component 8) was “Down Regulated”. For the same compound, the “Status of L-glutamine” value in series [1] (FIG. 5 network component 10) was “Down Regulated”. In addition, the “Status of L-arginine” value in series [1] (FIG. 5 network component 14) is recorded as “didn't undergo a significant change; also recorded: No Significant Change”. Moreover, the “Status of L-cystathionine” value in series [1] (FIG. 5 network component 17) is “Down Regulated”. In addition, in series [1] (FIG. 5 network component 18), the “Status of “a”-hetobutyrate” value is reported as “Down Regulated”. The “Status of L-cysteine” value in series [1] (FIG. 5 network component 19) is given as “Down Regulated”. Also, in series [1] (FIG. 5 network component 21), the “Status of L-serine” value was “Down Regulated”. Further, the “Status of “o”-phosphoethanolamine” value in series [1] (FIG. 5 network component 23) is given as “Up Regulated”. Moreover, in series [1] (FIG. 5 network component 25), the “Status of (‘S)-lactate” value is on record as “Down Regulated”. Also, the “Status of Pyruvate” value in series [1] (FIG. 5 network component 26) is recorded as “Down Regulated”. In addition, the “Status of Phospho‘enol’pyruvate” value in series [1] (FIG. 5 network component 29) is recorded as “No Significant Change”. Further, the “Status of GTP” value in series [1] (FIG. 5 network component 30) is listed as “Down Regulated”. The “Status of GDP” value in series [1] (FIG. 5 network component 31) is “didn't undergo a significant change; also recorded: No Significant Change”. Also, the “Status of Phenylpyruvate” value in series [1] (FIG. 5 network component 32) is reported as “Up Regulated”. Also, the “Status of L-phenylalanine” value in series [1] (FIG. 5 network component 33) was “Down Regulated”. Further, the “Status of L-tyrosine” value in series [1] (FIG. 5 network component 34) is “Down Regulated”. Further, the “Status of L-dopa” value in series [1] (FIG. 5 network component 35) is recorded as “Down Regulated”. Also, the Status of glutathione result in series [1] (FIG. 5 network component 37) is reported as “Up Regulated”. For the same compound, the “low toxic dose in rats” value in series [2] is 1500 mg/kg.
